The results in this text go back to ChEMBL document CHEMBL1201862, “PubChem BioAssay data set” (2004).

Test systems include HCT-116; MDA-N; OVCAR-3; SF-295; A549; RPMI-8226; K562; KM12; UACC-257; OVCAR-5; HOP-62; HL-60; CCRF-CEM; SK-OV-3; RXF 393; NCI-H23; SW-620; SK-MEL-28; SR; A498.
Assay in all cases: NCI anticancer screen, dose series, 48 h

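Results reflect a 48-hour exposure of cells in 96-well plates to compound at five concentrations. Abbreviation: GI50, concentration required for 50% inhibition of growth.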 Activity calls are given as the source filed them. No stated cut-off is given here; in the data, active = GI50 up to about 1.1 µM and inactive = higher. Some results are limits rather than exact numbers.

Consider `C[N+](C)(C)C(C1=CCCC1=O)c1ccccc1` (centres undefined), for which the GI50 in the test with HCT-116 is 16.4 µM (inactive); with MDA-N, 33.4 µM (inactive); with OVCAR-3, 47.1 µM (inactive); in the test with SF-295, > 100 µM (inactive); with A549, > 100 µM (inactive); in the test on RPMI-8226, 15.8 µM (inactive). Also, the GI50 in the test on K562 was 32.4 µM (inactive); with KM12, 19 µM (inactive); with UACC-257, 22.8 µM (inactive); in the test with OVCAR-5 it was > 100 µM (inactive); with HOP-62, 24.8 µM (inactive); in the test on HL-60, 25.8 µM (inactive). Moreover, the GI50 was 12.5 µM (inactive) in the test with CCRF-CEM; > 100 µM (inactive) with SK-OV-3; 21 µM (inactive) in the test with RXF 393; 45.2 µM (inactive) in the test on NCI-H23; 21.5 µM (inactive) in the test on SW-620; 30.3 µM (inactive) in the test with SK-MEL-28. The GI50 is 15.3 µM (inactive) in the test on SR and > 100 µM (inactive) in the test with A498.
With `Cc1c(NC(=S)Nc2ccc([N+](=O)[O-])cc2)c(=O)n(-c2ccccc2)n1C`, the GI50 with HCT-116 was > 100 µM (inactive); in the test with MDA-N it was > 100 µM (inactive); in the test on OVCAR-3, > 100 µM (inactive); in the test with SF-295 it was > 100 µM (inactive); in the test with A549, > 100 µM (inactive); in the test with RPMI-8226, 16.6 µM (inactive). The GI50 is 69.5 µM (inactive) in the test with K562; > 100 µM (inactive) with KM12; > 100 µM (inactive) in the test with UACC-257; > 100 µM (inactive) in the test on OVCAR-5; > 100 µM (inactive) in the test on HOP-62; > 100 µM (inactive) in the test on HL-60. Besides, the GI50 in the test with CCRF-CEM, in the test with SK-OV-3, with RXF 393, in the test on NCI-H23, in the test on SW-620 and in the test with SK-MEL-28 was > 100 µM (inactive) throughout. Also, the GI50 with SR and in the test on A498 was > 100 µM (inactive) throughout.
Take `CCOc1cc(NC(C)=O)ccc1C(=O)NN1C(=O)CSC1c1ccccc1` (centres undefined): the GI50 was > 100 µM (inactive) in the test with HCT-116; 84.9 µM (inactive) with MDA-N; 96.6 µM (inactive) in the test with OVCAR-3; 45.2 µM (inactive) with SF-295; 77.3 µM (inactive) in the test on A549; 26.1 µM (inactive) in the test with RPMI-8226. Also, the GI50 is 28.8 µM (inactive) in the test with K562; 71.4 µM (inactive) in the test on KM12; 63.8 µM (inactive) in the test on UACC-257; > 100 µM (inactive) with OVCAR-5; > 100 µM (inactive) with HOP-62; 33.5 µM (inactive) in the test with HL-60. For the same compound, the GI50 in the test on CCRF-CEM was 37.8 µM (inactive); in the test on SK-OV-3, > 100 µM (inactive); in the test with RXF 393 it was 74.6 µM (inactive); in the test on NCI-H23 it was 66.7 µM (inactive); in the test with SW-620, > 100 µM (inactive); with SK-MEL-28, > 100 µM (inactive). Moreover, the GI50 is 9.86 µM (inactive) with SR and > 100 µM (inactive) in the test on A498.
For `NS(=O)(=O)c1ccc(Nc2c3ccccc3nc3c(C(=O)NCCO)cccc23)cc1`, the GI50 is 0.149 µM (active) with HCT-116; 0.196 µM (active) in the test on MDA-N; 0.12 µM (active) in the test with OVCAR-3; 0.191 µM (active) in the test on SF-295; 0.178 µM (active) in the test on A549; 0.0676 µM (active) in the test with RPMI-8226. Also, the GI50 is 0.13 µM (active) with K562; 0.137 µM (active) with KM12; 0.17 µM (active) with UACC-257; 0.183 µM (active) with OVCAR-5; 0.167 µM (active) with HOP-62; 0.243 µM (active) with HL-60. Further, the GI50 was 0.0335 µM (active) in the test on CCRF-CEM; 0.201 µM (active) with SK-OV-3; 0.0857 µM (active) with RXF 393; 0.132 µM (active) in the test on NCI-H23; 0.118 µM (active) in the test with SW-620; 0.167 µM (active) with SK-MEL-28. Besides, the GI50 with SR was 0.0128 µM (active); in the test with A498, 0.105 µM (active).
On to `O=C1/C(=C/c2ccc(O)cc2)Oc2ccccc21`, for which the GI50 is 98.4 µM (inactive) in the test with HCT-116; > 100 µM (inactive) with MDA-N; > 100 µM (inactive) with OVCAR-3; > 100 µM (inactive) in the test with SF-295; > 100 µM (inactive) in the test with A549; 59.2 µM (inactive) with RPMI-8226. Also, the GI50 in the test with K562 is 40.9 µM (inactive); with KM12, 90.6 µM (inactive); in the test on UACC-257, > 100 µM (inactive); with OVCAR-5, > 100 µM (inactive); with HOP-62, > 100 µM (inactive); with HL-60 it was 35.6 µM (inactive). Also, the GI50 is 32.2 µM (inactive) in the test on CCRF-CEM; > 100 µM (inactive) in the test with SK-OV-3; > 100 µM (inactive) in the test on RXF 393; 62.7 µM (inactive) in the test with NCI-H23; > 100 µM (inactive) in the test on SW-620; > 100 µM (inactive) with SK-MEL-28. Besides, the GI50 in the test with SR is 47.6 µM (inactive); in the test with A498, > 100 µM (inactive).
With `COc1ccc(/C=C2\CN(C)CC3C2=NC(=S)NC3c2ccc(OC)cc2)cc1` (centres undefined), the GI50 was 3.43 µM (inactive) with HCT-116; 1.08 µM (active) in the test on MDA-N; 1.98 µM (inactive) in the test on OVCAR-3; 3.69 µM (inactive) in the test with SF-295; 4 µM (inactive) with A549; 2.99 µM (inactive) in the test with RPMI-8226. Moreover, the GI50 with K562 was 3.95 µM (inactive); in the test with KM12 it was 2.97 µM (inactive); with UACC-257 it was 4.82 µM (inactive); in the test on OVCAR-5, 19.3 µM (inactive); in the test on HOP-62, 6.46 µM (inactive); with HL-60, 2.19 µM (inactive). The GI50 in the test with CCRF-CEM is 8.13 µM (inactive); with SK-OV-3, 5.66 µM (inactive); with RXF 393, 2.17 µM (inactive); with NCI-H23, 7.96 µM (inactive); in the test on SW-620, 6.05 µM (inactive); in the test on SK-MEL-28 it was > 66.7 µM (inactive). Also, the GI50 with SR was 0.865 µM (active); with A498, 3.27 µM (inactive).
`C=C1CCOC2(C(O)C(C)(O)CO)NC(=O)C1(O)NC2=O` (centres undefined): the GI50 in the test with HCT-116, in the test with MDA-N, in the test with OVCAR-3, in the test with SF-295, in the test on A549 and with RPMI-8226 was > 100 µM (inactive) throughout. In addition, the GI50 in the test on K562, with KM12, with UACC-257, in the test with OVCAR-5, in the test on HOP-62 and in the test with HL-60 was > 100 µM (inactive) each time. Moreover, the GI50 in the test on CCRF-CEM, in the test on SK-OV-3, with RXF 393, with NCI-H23, in the test on SW-620 and in the test with SK-MEL-28 was > 100 µM (inactive) throughout. Moreover, the GI50 in the test with SR and with A498 was > 100 µM (inactive) in each case.
On to `C[C@@H]1C[C@@H](O)[C@]2(O)O[C@@H]3C[C@@]4(C=O)[C@@H](CC[C@@H]5[C@@H]4CC[C@]4(C)[C@@H](C6=CC(=O)OC6)CC[C@]54O)C[C@H]3O[C@@H]2O1` [CALACTIN], for which the GI50 in the test on HCT-116 was 0.0102 µM (active); with MDA-N, 0.0538 µM (active); in the test on OVCAR-3 it was 0.00169 µM (active); in the test on SF-295 it was 0.0133 µM (active); in the test on A549, 0.00439 µM (active); in the test on RPMI-8226, 0.0281 µM (active). For the same compound, the GI50 with K562 is 0.0179 µM (active); in the test on KM12 it was 0.0226 µM (active); in the test on UACC-257, 0.0213 µM (active); in the test on OVCAR-5, 0.0237 µM (active); with HOP-62 it was 0.00671 µM (active); in the test with HL-60, 0.0129 µM (active). Moreover, the GI50 is 0.00371 µM (active) in the test with CCRF-CEM; 0.0118 µM (active) in the test with SK-OV-3; 0.0194 µM (active) in the test with RXF 393; 0.00222 µM (active) with NCI-H23; 0.0133 µM (active) with SW-620; 0.0288 µM (active) in the test with SK-MEL-28. Also, the figures for the GI50 with SR and in the test with A498 were 0.00275 µM (active) and 0.0208 µM (active), respectively.
As for `COc1ccc(N2CCOCC2)cc1`, the GI50 in the test on HCT-116, with MDA-N, in the test on OVCAR-3, in the test on SF-295, in the test on A549 and in the test with RPMI-8226 was > 100 µM (inactive) throughout. Further, the GI50 in the test with K562, in the test with KM12, in the test with UACC-257, in the test on OVCAR-5, with HOP-62 and in the test on HL-60 was > 100 µM (inactive) each time. For the same compound, the GI50 in the test with CCRF-CEM, in the test with SK-OV-3, in the test with RXF 393, in the test on NCI-H23, in the test with SW-620 and with SK-MEL-28 was > 100 µM (inactive) throughout. Moreover, the GI50 in the test on SR and in the test with A498 was > 100 µM (inactive) in each case.
Take `CCOC(=O)CN1CCNCCN(CC(=O)OCC)CCNCC1`: the GI50 in the test with HCT-116, in the test on MDA-N, in the test on OVCAR-3, in the test with SF-295, with A549 and in the test with RPMI-8226 was > 100 µM (inactive) in each case. Further, the GI50 is 80.5 µM (inactive) with K562; > 100 µM (inactive) with KM12; > 100 µM (inactive) with UACC-257; > 100 µM (inactive) in the test with OVCAR-5; > 100 µM (inactive) in the test with HOP-62; > 100 µM (inactive) in the test with HL-60. The GI50 is > 100 µM (inactive) in the test with CCRF-CEM; > 100 µM (inactive) with SK-OV-3; > 100 µM (inactive) in the test on RXF 393; > 10 µM (inactive) in the test on SW-620; > 100 µM (inactive) in the test with SK-MEL-28; 78.7 µM (inactive) with SR. Further, the GI50 in the test on A498 was > 100 µM (inactive).
